± gives the expanded uncertainty stated by the source.
Assay: molar heat capacity at constant pressure
Settings: 101.33 kPa, Crystal 2, Small (less than 1 g) adiabatic calorimetry

CCCCCCCCCCCCCCn1cc[n+](C)c1.O=S(=O)([N-]S(=O)(=O)C(F)(F)F)C(F)(F)F
molar heat capacity at constant pressure (4.89 K): 3.21 ± 0.09 J/K/mol
molar heat capacity at constant pressure (5 K): 3.43 ± 0.11 J/K/mol
molar heat capacity at constant pressure (5.1 K): 3.64 ± 0.1 J/K/mol
molar heat capacity at constant pressure (5.39 K): 4.23 ± 0.12 J/K/mol
molar heat capacity at constant pressure (5.69 K): 4.88 ± 0.13 J/K/mol
molar heat capacity at constant pressure (6 K): 5.63 ± 0.15 J/K/mol
molar heat capacity at constant pressure (6.34 K): 6.47 ± 0.17 J/K/mol
molar heat capacity at constant pressure (6.73 K): 7.47 ± 0.19 J/K/mol
molar heat capacity at constant pressure (7.11 K): 8.54 ± 0.22 J/K/mol
molar heat capacity at constant pressure (7.5 K): 9.67 ± 0.24 J/K/mol
molar heat capacity at constant pressure (7.9 K): 10.86 ± 0.27 J/K/mol
molar heat capacity at constant pressure (8.3 K): 12.12 ± 0.3 J/K/mol
molar heat capacity at constant pressure (8.7 K): 13.43 ± 0.33 J/K/mol
molar heat capacity at constant pressure (9.11 K): 14.79 ± 0.36 J/K/mol
molar heat capacity at constant pressure (9.52 K): 16.21 ± 0.39 J/K/mol
molar heat capacity at constant pressure (9.93 K): 17.69 ± 0.42 J/K/mol
molar heat capacity at constant pressure (10 K): 17.94 ± 0.35 J/K/mol
molar heat capacity at constant pressure (10.45 K): 19.63 ± 0.31 J/K/mol
molar heat capacity at constant pressure (11.1 K): 22.1 ± 0.35 J/K/mol
molar heat capacity at constant pressure (11.75 K): 24.67 ± 0.38 J/K/mol
molar heat capacity at constant pressure (12.39 K): 27.32 ± 0.42 J/K/mol
molar heat capacity at constant pressure (13.04 K): 30.06 ± 0.45 J/K/mol
molar heat capacity at constant pressure (13.7 K): 32.85 ± 0.49 J/K/mol
molar heat capacity at constant pressure (14.36 K): 35.72 ± 0.52 J/K/mol
molar heat capacity at constant pressure (15 K): 38.56 ± 0.54 J/K/mol
molar heat capacity at constant pressure (15.02 K): 38.63 ± 0.56 J/K/mol
molar heat capacity at constant pressure (15.8 K): 42.14 ± 0.6 J/K/mol
molar heat capacity at constant pressure (16.7 K): 46.22 ± 0.65 J/K/mol
molar heat capacity at constant pressure (17.61 K): 50.37 ± 0.7 J/K/mol
molar heat capacity at constant pressure (18.51 K): 54.57 ± 0.75 J/K/mol
molar heat capacity at constant pressure (19.42 K): 58.74 ± 0.79 J/K/mol
molar heat capacity at constant pressure (20 K): 61.41 ± 0.6 J/K/mol
molar heat capacity at constant pressure (20.33 K): 62.84 ± 0.6 J/K/mol
molar heat capacity at constant pressure (21.54 K): 68.49 ± 0.64 J/K/mol
molar heat capacity at constant pressure (23.07 K): 75.56 ± 0.67 J/K/mol
molar heat capacity at constant pressure (24.61 K): 82.47 ± 0.7 J/K/mol
molar heat capacity at constant pressure (25 K): 84.18 ± 0.7 J/K/mol
molar heat capacity at constant pressure (26.14 K): 89.18 ± 0.72 J/K/mol
molar heat capacity at constant pressure (27.68 K): 95.96 ± 0.73 J/K/mol
molar heat capacity at constant pressure (29.23 K): 102.6 ± 0.7 J/K/mol
molar heat capacity at constant pressure (30 K): 105.9 ± 0.6 J/K/mol
molar heat capacity at constant pressure (30.94 K): 110.1 ± 0.6 J/K/mol
molar heat capacity at constant pressure (32.82 K): 117.9 ± 0.7 J/K/mol
molar heat capacity at constant pressure (34.72 K): 125.4 ± 0.7 J/K/mol
molar heat capacity at constant pressure (35 K): 126.4 ± 0.7 J/K/mol
molar heat capacity at constant pressure (36.61 K): 132.8 ± 0.8 J/K/mol
molar heat capacity at constant pressure (38.5 K): 140.1 ± 0.8 J/K/mol
molar heat capacity at constant pressure (40 K): 145.8 ± 0.8 J/K/mol
molar heat capacity at constant pressure (40.39 K): 147.2 ± 0.8 J/K/mol
molar heat capacity at constant pressure (42.38 K): 154.5 ± 0.9 J/K/mol
molar heat capacity at constant pressure (44.49 K): 162.2 ± 0.9 J/K/mol
molar heat capacity at constant pressure (45 K): 164.1 ± 1 J/K/mol
molar heat capacity at constant pressure (46.6 K): 169.8 ± 1 J/K/mol
molar heat capacity at constant pressure (48.71 K): 177.1 ± 1 J/K/mol
molar heat capacity at constant pressure (50 K): 181.5 ± 1 J/K/mol
molar heat capacity at constant pressure (50.83 K): 184.3 ± 1 J/K/mol
molar heat capacity at constant pressure (52.96 K): 191.2 ± 1.1 J/K/mol
molar heat capacity at constant pressure (55.08 K): 198 ± 1.1 J/K/mol
molar heat capacity at constant pressure (57.2 K): 204.8 ± 1.1 J/K/mol
molar heat capacity at constant pressure (59.33 K): 211.5 ± 1.2 J/K/mol
molar heat capacity at constant pressure (60 K): 213.6 ± 1.2 J/K/mol
molar heat capacity at constant pressure (61.45 K): 218 ± 1.2 J/K/mol
molar heat capacity at constant pressure (63.59 K): 224.5 ± 1.2 J/K/mol
molar heat capacity at constant pressure (65.72 K): 230.7 ± 1.3 J/K/mol
molar heat capacity at constant pressure (67.86 K): 236.8 ± 1.3 J/K/mol
molar heat capacity at constant pressure (70 K): 242.6 ± 1.4 J/K/mol
molar heat capacity at constant pressure (70.01 K): 242.5 ± 1.3 J/K/mol
molar heat capacity at constant pressure (72.16 K): 248.4 ± 1.4 J/K/mol
molar heat capacity at constant pressure (74.3 K): 254.1 ± 1.4 J/K/mol
molar heat capacity at constant pressure (76.46 K): 260.1 ± 1.4 J/K/mol
molar heat capacity at constant pressure (78.61 K): 266.1 ± 1.5 J/K/mol
molar heat capacity at constant pressure (80 K): 269.2 ± 1.5 J/K/mol
molar heat capacity at constant pressure (80.77 K): 271.8 ± 1.5 J/K/mol
molar heat capacity at constant pressure (81.2 K): 272.4 ± 1.5 J/K/mol
molar heat capacity at constant pressure (82.94 K): 276.6 ± 1.5 J/K/mol
molar heat capacity at constant pressure (83.19 K): 277.4 ± 1.5 J/K/mol
molar heat capacity at constant pressure (85.13 K): 281.8 ± 1.6 J/K/mol
molar heat capacity at constant pressure (85.17 K): 281.5 ± 1.6 J/K/mol
molar heat capacity at constant pressure (87.16 K): 286.5 ± 1.6 J/K/mol
molar heat capacity at constant pressure (89.15 K): 291.4 ± 1.6 J/K/mol
molar heat capacity at constant pressure (90 K): 293.7 ± 1.5 J/K/mol
molar heat capacity at constant pressure (91.14 K): 296.2 ± 1.5 J/K/mol
molar heat capacity at constant pressure (93.13 K): 301 ± 1.6 J/K/mol
molar heat capacity at constant pressure (95.13 K): 305.5 ± 1.6 J/K/mol
molar heat capacity at constant pressure (97.13 K): 310.1 ± 1.6 J/K/mol
molar heat capacity at constant pressure (99.14 K): 314.6 ± 1.6 J/K/mol
molar heat capacity at constant pressure (100 K): 316.7 ± 1.7 J/K/mol
molar heat capacity at constant pressure (101.15 K): 319.3 ± 1.7 J/K/mol
molar heat capacity at constant pressure (103.16 K): 324 ± 1.7 J/K/mol
molar heat capacity at constant pressure (105.16 K): 328.1 ± 1.7 J/K/mol
molar heat capacity at constant pressure (107.17 K): 332.6 ± 1.7 J/K/mol
molar heat capacity at constant pressure (109.18 K): 336.8 ± 1.7 J/K/mol
molar heat capacity at constant pressure (110 K): 338.4 ± 1.8 J/K/mol
molar heat capacity at constant pressure (111.2 K): 340.6 ± 1.8 J/K/mol
molar heat capacity at constant pressure (113.23 K): 345 ± 1.8 J/K/mol
molar heat capacity at constant pressure (115.25 K): 349.2 ± 1.8 J/K/mol
molar heat capacity at constant pressure (117.27 K): 353.4 ± 1.8 J/K/mol
molar heat capacity at constant pressure (119.3 K): 357.4 ± 1.8 J/K/mol
molar heat capacity at constant pressure (120 K): 358.8 ± 1.8 J/K/mol
molar heat capacity at constant pressure (121.32 K): 361.5 ± 1.9 J/K/mol
molar heat capacity at constant pressure (123.35 K): 365.5 ± 1.9 J/K/mol
molar heat capacity at constant pressure (124.9 K): 368.4 ± 1.9 J/K/mol
molar heat capacity at constant pressure (125.83 K): 370.4 ± 1.9 J/K/mol
molar heat capacity at constant pressure (127.42 K): 373.3 ± 1.9 J/K/mol
molar heat capacity at constant pressure (128.64 K): 376 ± 1.9 J/K/mol
molar heat capacity at constant pressure (129.89 K): 378.2 ± 1.9 J/K/mol
molar heat capacity at constant pressure (130 K): 378.6 ± 1.9 J/K/mol
molar heat capacity at constant pressure (131.38 K): 381.2 ± 2 J/K/mol
molar heat capacity at constant pressure (132.35 K): 383 ± 2 J/K/mol
molar heat capacity at constant pressure (134.13 K): 386.5 ± 2 J/K/mol
molar heat capacity at constant pressure (134.81 K): 387.8 ± 2 J/K/mol
molar heat capacity at constant pressure (136.88 K): 391.8 ± 2 J/K/mol
molar heat capacity at constant pressure (137.28 K): 392.5 ± 2 J/K/mol
molar heat capacity at constant pressure (139.62 K): 397 ± 2 J/K/mol
molar heat capacity at constant pressure (139.75 K): 397.2 ± 2 J/K/mol
molar heat capacity at constant pressure (140 K): 397.8 ± 2 J/K/mol
molar heat capacity at constant pressure (142.22 K): 402.1 ± 2.1 J/K/mol
molar heat capacity at constant pressure (142.37 K): 402.3 ± 2.1 J/K/mol
molar heat capacity at constant pressure (144.69 K): 406.6 ± 2.1 J/K/mol
molar heat capacity at constant pressure (145.12 K): 407.7 ± 2.1 J/K/mol
molar heat capacity at constant pressure (147.16 K): 411.2 ± 2.1 J/K/mol
molar heat capacity at constant pressure (147.86 K): 412.6 ± 2.1 J/K/mol
molar heat capacity at constant pressure (149.63 K): 415.9 ± 2.1 J/K/mol
molar heat capacity at constant pressure (150 K): 416.6 ± 2.2 J/K/mol
molar heat capacity at constant pressure (150.61 K): 418 ± 2.1 J/K/mol
molar heat capacity at constant pressure (152.1 K): 420.5 ± 2.1 J/K/mol
molar heat capacity at constant pressure (153.36 K): 423.1 ± 2.2 J/K/mol
molar heat capacity at constant pressure (154.57 K): 425.1 ± 2.2 J/K/mol
molar heat capacity at constant pressure (156.12 K): 428.1 ± 2.2 J/K/mol
molar heat capacity at constant pressure (157.05 K): 429.7 ± 2.2 J/K/mol
molar heat capacity at constant pressure (158.87 K): 433.3 ± 2.2 J/K/mol
molar heat capacity at constant pressure (159.52 K): 434.5 ± 2.2 J/K/mol
molar heat capacity at constant pressure (160 K): 435.3 ± 2.2 J/K/mol
molar heat capacity at constant pressure (161.63 K): 438.6 ± 2.2 J/K/mol
molar heat capacity at constant pressure (161.99 K): 439.1 ± 2.2 J/K/mol
molar heat capacity at constant pressure (164.38 K): 443.7 ± 2.3 J/K/mol
molar heat capacity at constant pressure (164.46 K): 443.6 ± 2.3 J/K/mol
molar heat capacity at constant pressure (166.93 K): 448.2 ± 2.3 J/K/mol
molar heat capacity at constant pressure (167.13 K): 448.7 ± 2.3 J/K/mol
molar heat capacity at constant pressure (169.4 K): 453 ± 2.3 J/K/mol
molar heat capacity at constant pressure (169.88 K): 453.9 ± 2.3 J/K/mol
molar heat capacity at constant pressure (170 K): 454.1 ± 2.3 J/K/mol
molar heat capacity at constant pressure (171.87 K): 457.5 ± 2.3 J/K/mol
molar heat capacity at constant pressure (172.63 K): 459.1 ± 2.3 J/K/mol
molar heat capacity at constant pressure (174.33 K): 462.3 ± 2.4 J/K/mol
molar heat capacity at constant pressure (175.38 K): 464.4 ± 2.4 J/K/mol
molar heat capacity at constant pressure (176.79 K): 467 ± 2.4 J/K/mol
molar heat capacity at constant pressure (178.12 K): 469.7 ± 2.4 J/K/mol
molar heat capacity at constant pressure (179.25 K): 471.5 ± 2.4 J/K/mol

— the NIST ThermoML archive (doi:10.1016/j.jct.2016.02.009)
